Consider seven molecules from patent publication US7511078B2, “Antiallergic agents, drugs, foods, drinks or cosmetics containing them and process for producing the same” (Kikkoman Corporation, priority 2001, dated 2009).

Converted amounts (≈) assume the structure as drawn. Structures can show the parent of a compound that is named as a salt.

One series has as its system rat fat cells. In words: Histamine-release inhibiting activity from rat fat cells (Compound 48/80 induced). The settings on record: for IC50: 50% inhibition rate; for inhibition at 25 µg/mL: sample concentration 25 μg/ml; for inhibition at 75 µg/mL: sample concentration 75 μg/ml; for inhibition at 250 µg/mL: sample concentration 250 μg/ml; for histamine-release inhibiting activity (FIG. 7): sample solutions 100 μg/ml each; for activity relative to the known agents (caffeic acid, ketotifen fumarate): from IC50 values of histamine-release inhibition. Format: cell-based. As for the experimental part:
Cells were collected from the abdominal cavity of rats immediately after being sacrificed by exsanguinations using heparin-containing fat cell buffer (composition: 0.150 M NaCl, 3.7 mM KCl, 3.0 mM Na2HPO4, 3.5 mM KH2PO4, 0.9 mM CaCl2, 5.6 mM D-glucose, 0.1% (w/v) gelatin) (Lectures on Experimental Biopharmacology, Vol.12, Inflammations and Allergies II, edited by Kazuo Ohuchi, published by Hirokawa Publishing, 1993, page 372). After washing the cells, the above heparin-containing fat cell buffer was added to a concentration of 2.0×10^5 cells/ml, and this was used as the cell suspension.
Meanwhile, 3 mg of tomato extract were dissolved in 1 ml of 1% dimethyl sulfoxide (DMSO) and used as a sample solution. Further, the naringenin chalcone obtained in Example 1-3, and ketotifen fumarate, which is known to have an antiallergic activity, were respectively dissolved in the heparin-containing fat cell buffer containing 0.15% DMSO (final concentration), and the tricaffeoylquinic acid obtained in Example 1-4, and caffeic acid, which is known to have an antiallergic activity, were respectively dissolved in heparin-containing fat cell buffer containing 0.08% ethanol (final concentration), and each of these were used as sample solutions having concentrations of 25-250 μg/ml.
80 μl of the above cell suspension were added to 20 μl of the sample solution and the mixture was incubated at 37° C. for 10 minutes. Subsequently, 20 μl of Compound 48/80 (5 μg/ml) were added as histamine-degranulation inducer, and the mixture was incubated for 10 minutes. After the mixture was cooled with ice, it was separated by centrifugation (1,500×g, 5 minutes, 4° C.), and the free histamine in the supernatant was measured by high-performance liquid chromatography equipped with a fluorescent detector.
Histamine-release inhibiting activity was calculated from the measured histamine values using calculation formula (1) shown below. Histamine-release inhibition rate (%)=(1−(S−B)/(C−B))×100 (1) • B: Amount of histamine released from control cells in the absence of inducer • C: Amount of histamine released from cells in the presence of inducer • S: Amount of histamine released from cells in the presence of test sample and inducer

A further series concerns rat macrophages. Nature of the series: Leukotriene B4 release inhibiting activity from rat macrophages (opsonized zymosan, ELISA). Format: cell-based. The following applies: Macrophage, read-out: Inhibition rate (%); for inhibition at 5 µg/mL: sample concentration 5 μg/ml; for inhibition at 50 µg/mL: sample concentration 50 μg/ml; for inhibition at 500 µg/mL: sample concentration 500 μg/ml. As for the experimental part: Soluble starch (Wako, grade 1) and Bactopeptone (Difco) were suspended in physiological saline (0.9% NaCl, Ohtsuka Pharmaceutical, Co.) to have a concentration of 5% each. After sterilizing with an autoclave (121° C., 20 minutes), the suspension was cooled down to room temperature. The suspension was administered by injection into rat abdominal cavity in an amount of 5 mL per 100 g of body weight under ether anesthesia (using a 21G needle).
Four days later, the rats were sacrificed by exsanguination from the carotid artery under ether anesthesia. After adequately exsanguinating the rats, the rats were sprayed with ethanol and placed in a clean bench. 25 mL of CMF-HBSS (Ca, Mg free HBSS) were injected into the abdominal cavity followed by adequately rubbing the abdomen. The rats were laparotimized using sterilized instruments, and the solution within the abdominal cavity was collected. The collected solution was filtered using three layers of gauze. The abdominal cavity was further washed with 25 mL of CMF-HBSS (Ca, Mg free HBSS), and the solution was collected in the same manner. The collected cells were washed three times with ice-cold 0.1% BSA-PBS, suspended in 10% FBS-RPMI1640 medium. The cell suspension was dispersed in a 6 cm Petri dish to have 4.5×10^6 cells/3 mL/dish, and incubated for 2 hours in an incubator kept at 5% CO2 and 37° C. Subsequently, the supernatant was discarded, the Petri dish was washed three times with PBS to rinse off non-adherent cells, and the cells adhered onto inside of the Petri dish were used as macrophages. After the macrophages were pre-incubated for 20 minutes in 1% FBS-RPMI1640 medium, zymosan opsoninized using rat serum was added thereto, and the mixture was cultured in an incubator kept at 5% CO2 and 37° C. for a predetermined period of time. Incidentally, samples were added 30 minutes before addition of zymosan. After completion of culture, supernatant from the culture was recovered and the amount of LTB4 in the supernatant was measured using an ELISA kit (Leukotriene B4 EIA Kit, Cayman). Activity of inhibiting release of leukotriene B4 was calculated from the measured leukotriene B4 values using the following calculation formula (2): Leukotriene B4 release inhibition rate (%)=(1−(S−B)/(C−B))×100 (2) • B: Amount of leukotriene B4 released from control cells in the absence of inducer • C: Amount of leukotriene B4 released from cells in the presence of inducer • S: Amount of leukotriene B4 released from cells in the presence of test sample and inducer

For another series, the system named is mouse auricular edema. In words: Anaphylaxis inhibitory action in mouse auricular edema (anti-TNP-IgE / picryl chloride). Type of series: in vivo. As for the experimental part: C3H/Hecrj, 7-week-old female mice having body weights of 15-20 g were used in groups of five animals each. Tomato Extract 1 was suspended in 0.5% CMC-Na (sodium carboxymethyl cellulose) solution, while 0.5% CMC-Na was administered as a control. The samples were administered six times over the course of five days, and measurements were made on day 5. The animals were dosed once a day from day 1 through day 4, and on day 5, they were orally dosed twice, 4 hours before and 30 minutes after administration of anti-TNP-IgE solution. The dose of Tomato Extract 1 was 0.16 mg, 0.8 mg or 4 mg per 1 kg of mouse body weight.
0.2 ml of 1% anti-TNP-IgE solution was administered from the vein of eye ground, and 30 minutes later, sample solution was orally administered. Further 30 minutes later, thickness of the left and right ears were measured. Immediately after that, 10 μl of 0.8% acetone-olive oil (1:1) solution of picryl chloride was applied to each ear. The thickness of the left and right ears of the mice were measured two hours after application, and the difference in ear thickness before and after application was taken to represent edema caused by anaphylaxis. A test of significance was carried out using the Student's t-test.
Measurement was made in the same manner as in (1) above, except for administration method. Samples were administered six times over the course of five days, and measurement was made on day 5. The animals were dosed once a day from day 1 through day 4, and on day 5, they were orally dosed twice, 4 hours before and 30 minutes after administration of anti-TNP-IgE solution. The dose of tricaffeoylquinic acid was 0.16 mg, 0.8 mg, 4 mg or 20 mg per kilogram of mouse body weight.

Series [1] in a line: Cytotoxicity test (Trypan Blue, rat abdominal cavity cells). Format: cell-based. The settings on record: various concentrations, 37° C., 0-120 minutes. The procedure: To 80 μl of cell suspension (1-2×10^6 cells/ml) prepared in the same manner as in Example 2 were added 20 μl of sample solutions (Tomato Extract 1, naringenin chalcone, tricaffeoylquinic acid or dicaffeoylsuccinylquinic acid obtained in Example 1) with various concentrations, and the mixture was cultured at 37° C. Each of 10 μl aliquots was taken after 0, 10, 20, 60 and 120 minutes from the start of culturing, and each aliquot was added to 20 μl of 0.4% Trypan Blue prepared in advance. Judging those cells that were stained with blue pigment to be dead cells, the number of cells was counted under microscopic examination using a hemocytometer. Viability (percentage of viable cells to the total number of cells) and the number of viable cells were measured.

The mark [2] stands for this setting: Rattus norvegicus, histamine release.
Where [3] appears, read: Rattus norvegicus, histamine release, read-out: Inhibition rate (%).

As a reminder, the IC50 is the midpoint of a concentration-inhibition curve. As a reminder, the inhibition is the share of the control response that was lost under treatment.

Turning to `CN1CCC(=C2c3ccccc3CC(=O)c3sccc32)CC1` [Ketotifen fumarate, ketotifen fumarate, reference compound], in the series with rat fat cells (setting [2]), the IC50 is about 250 µg/mL. For the same molecule, in the series with rat fat cells (setting [3]), the inhibition at 25 µg/mL came to 0%, the inhibition at 75 µg/mL was 13.1% and the inhibition at 250 µg/mL was 49.4%.
On to `O=C(/C=C/c1ccc(O)c(O)c1)O[C@@H]1C[C@](O)(C(=O)O)C[C@@H](O)[C@H]1O` [chlorogenic acid, reference compound], for which the “histamine-release inhibiting activity (FIG. 7)” value with rat fat cells is given as “did not inhibit histamine-release”.
Take `O=C(O)[C@]1(O)C[C@@H](O)[C@@H](O)[C@H](O)C1` [quinic acid, reference compound]: in the series with rat fat cells, the “histamine-release inhibiting activity (FIG. 7)” value is reported as “did not inhibit histamine-release”.
Turning to `O=C(/C=C/c1ccc(O)cc1)c1c(O)cc(O)cc1O` [Naringenin chalcone, 2′,4′,6′,4-tetrahydroxy-chalcone], the IC50 in the series on rat fat cells (setting [2]) was about 70 µg/mL (≈ 257 µM). For the same molecule, in the series with rat fat cells (setting [3]), the inhibition at 25 µg/mL amounted to 28.2% and the inhibition at 75 µg/mL worked out at 53.9%. The inhibition at 50 µg/mL in the series with rat fat cells (Rattus norvegicus, histamine release, sample concentration 50 μg/ml, read-out: Inhibition rate (%)) amounted to 37.6%. The inhibition at 200 µg/mL in the series on rat fat cells (Rattus norvegicus, histamine release, sample concentration 200 μg/ml, read-out: Inhibition rate (%)) came to 82%. Moreover, the “activity relative to the known agents (caffeic acid, ketotifen fumarate)” value in the series on rat fat cells is reported as “roughly 3.5 times”. Further, in the series on rat macrophages, the inhibition at 5 µg/mL stood at 62.3%, the inhibition at 50 µg/mL was 93.5% and the inhibition at 500 µg/mL was 98.2%. Besides, the “anaphylaxis inhibitory action (FIG. 8)” value with mouse auricular edema (doses 0.0064, 0.032, 0.16 or 0.8 mg per kg) is “exhibited an anaphylaxis inhibitory action dose-dependently”. The “cytotoxicity (viability and number of viable cells)” value (from here on “cytotoxicity”) in series [1] is “no cytotoxicity was observed”.
`O=C(O)CCC(=O)OC1C(OC(=O)/C=C/c2ccc(O)c(O)c2)CC(O)(C(=O)O)CC1OC(=O)/C=C/c1ccc(O)c(O)c1` (stereo not drawn) [dicaffeoylsuccinylquinic acid, 3,5-dicaffeoyl-4-succinylquinic acid]: in the series on rat fat cells, the “histamine-release inhibiting activity (FIG. 7)” value was “exhibited a significantly high activity”. Also, the “cytotoxicity” value in series [1] is on record as “no cytotoxicity was observed”.
`O=C(/C=C/c1ccc(O)c(O)c1)OC1CC(O)(C(=O)O)CC(OC(=O)/C=C/c2ccc(O)c(O)c2)C1OC(=O)/C=C/c1ccc(O)c(O)c1` (stereo not drawn) [Tricaffeoylquinic acid, 3,4,5-tricaffeoylquinic acid] showed an IC50 in the series with rat fat cells (setting [2]) of about 25 µg/mL (≈ 36.8 µM). Also, in the series on rat fat cells (setting [3]), the inhibition at 25 µg/mL stood at 54.1% and the inhibition at 75 µg/mL is 93.2%. In the series with rat fat cells, the “activity relative to the known agents (caffeic acid, ketotifen fumarate)” value was “roughly 10 times” and the “histamine-release inhibiting activity (FIG. 7)” value is “exhibited a significantly high activity”. In the series on rat macrophages, the inhibition at 5 µg/mL was 33.5%, the inhibition at 50 µg/mL was found to be 65.8% and the inhibition at 500 µg/mL was determined as 69.7%. Moreover, the “anaphylaxis inhibitory action (FIG. 9)” value in the series with mouse auricular edema (dose 4 mg per kg) is on record as “exhibited an anaphylaxis inhibitory action”. Further, in the series with mouse auricular edema (orally administered, 0.16, 0.8, 4 or 20 mg per kg, six doses over five days), the “anaphylaxis inhibitory action (FIG. 10)” value is on record as “exhibited an anaphylaxis inhibitory action”. The “cytotoxicity” value in series [1] was “no cytotoxicity was observed”.
`O=C(O)/C=C/c1ccc(O)c(O)c1` [Caffeic acid, caffeic acid, reference compound] yielded an IC50 in the series on rat fat cells (setting [2]) of about 250 µg/mL (≈ 1390 µM). The inhibition at 250 µg/mL in the series on rat fat cells (setting [3]) was 50.1%. Further, in the series on rat fat cells, the “histamine-release inhibiting activity (FIG. 7)” value was “more potent in the order of caffeic acid followed by dicaffeoylquinic acid”.
